The results in this text go back to patent US9415017B2, “Bacterial ghosts for mediating innate immunity” (priority 2010, dated 2016).

Structures are written as SMILES.

Data set [1] has as its system RAW 264.7 cells. Briefly: neutral red cytotoxicity assay. The class given is cell-based, murine. The text has this: The neutral red assay was used to test the impact of empty or RV-loaded BGs as well as the chemical per se on the viability of RAW 264.7 cells. Neutral red (3-amino-m-dimethylamino-2methyl-phenazine hydrochloride) selectivly accumulates in lysosomes of living cells (Repetto et al. 2008. Nat Protoc, 2008. 3(7): p. 1125-31) and provides therefore a quantitative assessment of viablitity.
Individual wells of 96-well plates were inoculated with 1.25×10^5 cells and were allowed to attach overnight. Macrophages were treated with 200 μl medium containing RV-loaded and unloaded BGs (all resuspended in sf-medium) in different BG to cell ratios (10, 100, 1000) or with RV alone for either 20 min followed by a 20 hour recovery period or 24 hours. The same conditions were performed with two RV-concentrations (15 μM and 30 μM). Triton X-100 (0.01%) served as a positive control and cells treated with test medium represent the negative control. After treatment, the cells were washed twice with PBS and were incubated either with culture medium for 20 hours or directly with 100 μl of NR (80 μg/ml final concentration) for another two hours (37° C.; 5% CO2). Thereafter, the dye was discarded and the wells were washed two times with PBS. Extraction of the dye was accomplished by addition of 100 μl of the acidic destaining solution (1 ml acetic acid, 73 ml 96% ethanol and 26 ml deionized water). The plates were shaken for 10 min and the developed color was measured by a plate reader (Dynex OpsysMR) at 570 nm (reference wavelength 690 nm).

Data set [2] concerns NO production in RAW 264.7 cells. Briefly: nitrite assay (Griess reaction) for NO production. The class given is cell-based, murine. The settings on record: for impact on BG-induced NO-generation: NO after 20 hours. Here is the method:
RAW 264.7 cells were seeded in 96 well plates and were cultured for two days. […] Thereafter, the bacterial ghost suspensions were removed by twice washing with PBS and the cells were incubated for another 20 hours in the dark at 37° C. 5% CO2. In order to investigate the stimulatory impact of pure LPS (Fluka; E. coli serotype 055:B5), long-term incubation experiments with various LPS concentrations were conducted for 20 hours.
As an indicater of NO production, nitrite concentration was measured in the supernatant of the macrophages by use of the Griess reaction (Green et al., 1982 Anal Biochem. 126(1): p. 131-8). In short, 100 μl of each supernatant was mixed with 90 μl 1% sulphanilamide (Fluka) in 5% H3PO4 and 90 μl of N-(1-Naphthyl) ethylene diamine dihydrochloride in water. The absorbance was determined at 550 nm with an ELISA reader (Tecan Sunrise).

On to `Oc1ccc(C=Cc2cc(O)cc(O)c2)cc1` [RV, resveratrol], for which the cell viability entry is “no impact at all” in data set [1] (15 μM RV); 81.23 ± 10.6% in data set [1] (30 μM RV); “no effects” in data set [1] (short-term coincubation (20 min, measured after 20 hours)). The loss of viability in data set [1] (30 μM RV) turned out to be 20%. For the same compound, the “impact on BG-induced NO-generation” value in data set [2] (0.3 μM and 0.3 μM RV with empty BGs at ratio 500, 20 min) was “no impact”; in data set [2] (30 μM RV with empty BGs at ratio 500, 20 min), “Statistically significant difference”. In data set [2] (BG to cell ratio of 100, RV-loaded ghosts or 3 μM RV with empty BGs), the “reduction of nitrite compared to empty BGs alone” value is reported as “no effect”. The “reduction of NO compared to empty BGs alone” value in data set [2] (MOI of 1000, RV-ghosts or 3 μM RV coevally with empty BGs) is reported as “reduction”.

A word on the cell viability: it is a read-out of living cells in per cent, often relative to untreated cells.
